This experiment has as its system HCV replicon RNA replication in human Huh7 hepatoma cells. The experiment can be described thus: HCV replicon assay (activity levels from either or both of HCV replicon assay 1, Huh7/Clone A RT-qPCR, and assay 2, Huh7 ET luc-ubi-neo/ET). To be noted: Hepatitis C virus, Huh-7, either or both HCV replicon assays: Huh7/Clone A, 48 hours, 72 hours, Luc activity or RT-PCR, read-out: inhibit HCV replication at IC50 levels or estimated IC50 levels. Type of experiment: cell-based, Hepatitis C virus (HCV). The text has this: The HCV replicon assay is a cell-culture system that mimics in vivo HCV replication and provides a system to study HCV replication in vitro. It was created by transfecting cloned viral RNA derived from a consensus HCV genomic sequence into human Huh7 hepatoma cells that are semi-permissive for viral RNA production (Lohmann V., Korner F., Koch J.-O., Herian U., Theilmann L. and Bartenschlager R. (1999). Replication of subgenomic Hepatitis C virus RNAs in a hepatoma cell line. Science 285, 110-113 and Blight K. J., Kolykhalov A. A. and Rice C. M. (2000). Efficient initiation of HCV RNA Replication in cell culture. Science 290, […]). These transfected cell lines contain a subgenomic HCV RNA genome that includes (1) the HCV 5′NTR fused to 12 amino acids of the capsid coding region, (2) the neomycin phosphotransferase gene (Neo) as a selectable marker, (3) the internal ribosome entry site (IRES) from encephalomyocarditis virus (EMCV) that directs translation of HCV non-structural proteins (variously NS2 or NS3 to NS5B), and (4) the 3′ NTR. Replicon-containing cells autonomously and persistently replicate HCV RNA that can be measured quantitatively by real-time qPCR. Therefore, the replicon system facilitates quantitative assessment of anti-viral activity by monitoring changes in HCV RNA replication in a cell-based assay.
HCV replicon-containing cells (Huh7/Clone A) were routinely maintained in Clone A growth medium (DMEM medium [Invitrogen], supplemented with 10% Fetal Bovine Serum, 1% Non Essential Amino Acids and 1 g/L G418). Test compounds were dissolved in dimethyl sulfoxide (DMSO) to make 200× stock solutions for all doses prior to treatment.
For the HCV replicon assay, Huh7/Clone A cells were trypsinized from culture flasks, seeded in 1 ml of Clone A growth medium without G418 at 4×10^4 cells per well in 24-well plates and incubated at 37° C. in a humidified CO2 (5%) incubator overnight. Following overnight incubation, compound solutions were added into wells in the same volume (5 μl of 200× compound stock per well) to give a final DMSO concentration of 0.5%. Three wells on each plate supplemented with 5 μl of DMSO served as untreated controls. For IC50 determinations, compounds were tested at 7 serial dilutions in triplicates from the starting stock solutions. The plates were incubated at 37° C. for 48 hours. After incubation, cells were harvested, transferred to 96-well plates, and subjected to total RNA extraction using the RNA Isolation Kit (RNeasy 96, Qiagen) according to the protocol described by the manufacture's RNeasy 96 Handbook (Qiagen).
Total RNA eluted in 130 μl of RNase-free dH2O was quantitated by the RiboGreen Assay according to the supplier's protocol (Molecular Probe). Briefly, 5 μl of RNA samples were aliquoted in duplicate to a 96-well black microplate and a 96-well TaqMan Optical plate. RNA samples in the black microplate were mixed with 95 μl of diluted RiboGreen:reagent (1:250 dilution in TE buffer) and sample fluorescence was measured using a fluorescence microplate reader at standard fluorescein wavelengths (excitation ˜480 nm, emission ˜520 nm). Ribosomal RNA (Molecular Probe) was used as standard.
TaqMan quantitative PCR (RT-qPCR) was used to quantitate the amount of HCV replicon RNA in each sample. The RT-qPCR reactions were performed in 25 μl on an ABI PRISM 7900 HT Sequence Detection System (Applied Biosystems). The reaction mixture contained 5 μl of total RNA (10-100 ng), 1× TaqMan Buffer A (Applied Biosystems), 5.5 mM MgCl2, 1.2 mM dNTP mix, 0.625 U of AmpliTaq Gold (Applied Biosystems), 5 U of MMLV reverse transcriptase (Promega), 5 U of rRNasin (Promega), 300 nM each of the forward and reverse primers, and 100 nM TaqMan MGB probe. Primers and probe were designed to hybridize to a portion of the neomycin resistance gene (neo) in the replicon and the sequences are as follows: forward primer 5′-GGCTACCTGCCCATTCGA-3′; reverse primer 5′-CCGGCTTCCATCCGAGTAC-3′; MGB probe 5′-CCACCAAGCGAAACA-3′. […]

Structures are written as SMILES.

As usually defined, the IC50 is the concentration that inhibits the measured activity by half. On to `CN1CCN(c2cc3c(cc2F)c(=O)c(-c2noc(CC(C)(C)C)n2)cn3Cc2ccc(Cl)cc2)CC1` [Compound 21, 1-(4-chloro-benzyl)-3-[5-(2,2-dimethyl-propyl)-[1,2,4]oxadiazol-3-yl]-6-fluoro-7-(4-methyl-piperazin-1-yl)-1H-quinolin-4-one], for which the concentration for half-maximal inhibition (IC50) was over 10 µM.

Turning to `CN(C)c1cc2c(cc1F)c(=O)c(-c1noc(Cc3ccccc3)n1)cn2Cc1ccc(C(F)(F)F)cc1F` [Compound 51, 3-(5-benzyl-[1,2,4]oxadiazol-3-yl)-7-dimethylamino-6-fluoro-1-(2-fluoro-4-trifluoromethyl-benzyl)-1H-quinolin-4-one], the concentration for half-maximal inhibition (IC50) is over 10 µM.

On to `CN1CCN(c2cc3c(cc2F)c(=O)c(-c2noc(Cc4cccnc4)n2)cn3Cc2ccc(Cl)cc2)CC1` [Compound 62, 1-(4-chloro-benzyl)-6-fluoro-7-(4-methyl-piperazin-1-yl)-3-(5-pyridin-3-ylmethyl-[1,2,4]oxadiazol-3-yl)-1H-quinolin-4-one], for which the IC50 is over 10 µM.

Consider `CN1CCN(c2cc3c(cc2F)c(=O)c(-c2noc(Cc4ccccc4)n2)cn3Cc2c(F)cccc2F)CC1` [Compound 48, 3-(5-benzyl-[1,2,4]oxadiazol-3-yl)-1-(2,6-difluoro-benzyl)-6-fluoro-7-(4-methyl-piperazin-1-yl)-1H-quinolin-4-one], for which the IC50 is under 10 µM.

For `O=C1CN(c2cc3c(cc2F)c(=O)c(-c2noc(Cc4ccc(F)cc4)n2)cn3Cc2ccc(C(F)(F)F)cc2F)CCN1` [Compound 87, 6-fluoro-3-[5-(4-fluoro-benzyl)-[1,2,4]oxadiazol-3-yl]-1-(2-fluoro-4-trifluoromethyl-benzyl)-7-(3-oxo-piperazin-1-yl)-1H-quinolin-4-one], the 50% inhibitory concentration (IC50) was under 0.5 µM.

As to `O=c1c(-c2noc(Cc3ccccc3)n2)cn(Cc2ccc(Cl)cc2)c2ccc(O)cc12` [Compound 12, 3-(5-benzyl-[1,2,4]oxadiazol-3-yl)-1-(4-chloro-benzyl)-6-hydroxy-1H-quinolin-4-one], the half-inhibitory concentration (IC50) is under 10 µM.

For `NC(=O)CNc1cc2c(cc1F)c(=O)c(-c1noc(Cc3ccccc3)n1)cn2Cc1ccc(C(F)(F)F)cc1F` [Compound 69, 2-[3-(5-benzyl-[1,2,4]oxadiazol-3-yl)-6-fluoro-1-(2-fluoro-4-trifluoromethyl-benzyl)-4-oxo-1,4-dihydro-quinolin-7-ylamino]-acetamide], the concentration for half-maximal inhibition (IC50) was under 10 µM.

`COc1cc2c(=O)c(-c3noc(C4(c5ccccc5)CC4)n3)cn(Cc3ccc(Cl)cc3)c2cc1OC` [Compound 2, 1-(4-chloro-benzyl)-6,7-dimethoxy-3-[5-(1-phenyl-cyclopropyl)-[1,2,4]oxadiazol-3-yl]-1H-quinolin-4-one]: the IC50 is over 10 µM.

In the case of `COc1cc2c(=O)c(-c3noc(Cc4ccc(C)cc4)n3)cn(Cc3ccc(Cl)cc3)c2cc1OC` [Compound 4, 1-(4-chloro-benzyl)-6,7-dimethoxy-3-[5-(4-methyl-benzyl)-[1,2,4]oxadiazol-3-yl]-1H-quinolin-4-one], the IC50 is over 10 µM.

For `O=c1c(-c2noc(Cc3ccccc3)n2)cn(Cc2ccc(C(F)(F)F)cc2)c2cc(-n3ccnc3)c(F)cc12` [Compound 84, 3-(5-benzyl-[1,2,4]oxadiazol-3-yl)-6-fluoro-7-imidazol-1-yl-1-(4-trifluoromethyl-benzyl)-1H-quinolin-4-one], the IC50 is under 2 µM.

As for `O=c1c(-c2noc(Cc3ccccc3)n2)cn(Cc2ccc(C(F)(F)F)cc2)c2cc(N3CCCNCC3)c(F)cc12` [Compound 71, 3-(5-benzyl-[1,2,4]oxadiazol-3-yl)-7-[1,4]diazepam-1-yl-6-fluoro-1-(4-trifluoromethyl-benzyl)-1H-quinolin-4-one], the IC50 is under 0.5 µM.

For the compound `CN1CCN(c2cc3c(cc2F)c(=O)c(-c2noc(Cc4ccccc4)n2)cn3Cc2ccc(C(F)(F)F)cc2)CC1` [Compound 36, 3-(5-benzyl-[1,2,4]oxadiazol-3-yl)-6-fluoro-7-(4-methyl-piperazin-1-yl)-1-(4-trifluoromethyl-benzyl)-1H-quinolin-4-one], the IC50 is under 2 µM.

For `CN1CCN(c2cc3c(cc2F)c(=O)c(-c2noc(C(CCCCN)c4ccccc4)n2)cn3Cc2ccc(Cl)cc2)CC1` (stereo not drawn) [Compound 82, 3-[5-(5-amino-1-phenyl-pentyl)-[1,2,4]oxadiazol-3-yl]-1-(4-chloro-benzyl)-6-fluoro-7-(4-methyl-piperazin-1-yl)-1H-quinolin-4-one], the IC50 was under 10 µM.

As for `O=c1c(-c2noc(Cc3ccccc3)n2)cn(Cc2ccc(C(F)(F)F)cc2)c2cc(NCCOCCO)c(F)cc12` [Compound 73, 3-(5-benzyl-[1,2,4]oxadiazol-3-yl)-6-fluoro-7-[2-(2-hydroxy-ethoxy)-ethylamino]-1-(4-trifluoromethyl-benzyl)-1H-quinolin-4-one], the IC50 is under 10 µM.

In the case of `CN(C)c1cc2c(cc1F)c(=O)c(-c1noc(C(C)(C)c3ccccc3)n1)cn2Cc1ccc(F)cc1` [Compound 154, 7-(dimethylamino)-6-fluoro-1-(4-fluorobenzyl)-3-(5-(2-phenylpropan-2-yl)-1,2,4-oxadiazol-3-yl)quinolin-4(1H)-one], the half-inhibitory concentration (IC50) was under 2 µM.

On to `COC(=O)CNc1cc2c(cc1F)c(=O)c(-c1noc(Cc3ccccc3)n1)cn2Cc1ccc(C(F)(F)F)cc1F` [Compound 66, methyl[3-(5-benzyl-[1,2,4]oxadiazol-3-yl)-6-fluoro-1-(2-fluoro-4-trifluoromethyl-benzyl)-4-oxo-1,4-dihydro-quinolin-7-ylamino]-acetate], for which the half-inhibitory concentration (IC50) is over 10 µM.

On to `CN(C)c1cc2c(cc1F)c(=O)c(-c1noc(C(C)(C)c3ccccc3)n1)cn2Cc1ccc(C(F)(F)F)cc1` [Compound 152, 7-(dimethylamino)-6-fluoro-3-(5-(2-phenylpropan-2-yl)-1,2,4-oxadiazol-3-yl)-1-(4-(trifluoromethyl)benzyl)quinolin-4(1H)-one], for which the IC50 was under 0.5 µM.

`CC(C)(c1ccccc1)c1nc(-c2cn(C(C)(C)c3ccccc3)c3cc(N4CCOCC4)c(F)cc3c2=O)no1` [Compound 144, 6-fluoro-7-morpholino-1-(2-phenylpropan-2-yl)-3-(5-(2-phenylpropan-2-yl)-1,2,4-oxadiazol-3-yl)quinolin-4(1H)-one]: the IC50 was over 10 µM.

`CN1CCN(c2cc3c(cc2F)c(=O)c(-c2noc(Cc4ccc(F)cc4)n2)cn3CCN2CCOCC2)CC1` [Compound 58, 6-fluoro-3-[5-(4-fluoro-benzyl)-[1,2,4]oxadiazol-3-yl]-7-(4-methyl-piperazin-1-yl)-1-(2-morpholin-4-yl-ethyl)-1H-quinolin-4-one]: the 50% inhibitory concentration (IC50) was over 10 µM.

`CN1CCN(c2cc3c(cc2F)c(=O)c(-c2noc(C(C)(C)c4ccccc4)n2)cn3Cc2ccc(C(F)(F)F)cc2F)CC1` [Compound 77, 6-fluoro-1-(2-fluoro-4-trifluoromethyl-benzyl)-3-[5-(1-methyl-1-phenyl-ethyl)-[1,2,4]oxadiazol-3-yl]-7-(4-methyl-piperazin-1-yl)-1H-quinolin-4-one]: the IC50 was under 0.5 µM.

In the case of `COc1ccc2c(c1)c(=O)c(-c1noc(Cc3ccccc3)n1)cn2CC1CCCCC1` [Compound 10, 3-(5-benzyl-[1,2,4]oxadiazol-3-yl)-1-cyclohexylmethyl-6-methoxy-1H-quinolin-4-one], the 50% inhibitory concentration (IC50) is over 10 µM.

The record behind these values is patent US20070287699A1, “ANTIVIRAL AGENTS” (ViroBay, Inc., priority 2006, published 2007).
